Molecular target: T1, mAChR M4 (Homo sapiens, UniProt P08173)
T1 construct: expressed in transfected cells; host or cells: CHO-K1 cells stably transfected with M4 cDNA and chimeric G-protein Gqi5
T1 sequence (P08173 1-479): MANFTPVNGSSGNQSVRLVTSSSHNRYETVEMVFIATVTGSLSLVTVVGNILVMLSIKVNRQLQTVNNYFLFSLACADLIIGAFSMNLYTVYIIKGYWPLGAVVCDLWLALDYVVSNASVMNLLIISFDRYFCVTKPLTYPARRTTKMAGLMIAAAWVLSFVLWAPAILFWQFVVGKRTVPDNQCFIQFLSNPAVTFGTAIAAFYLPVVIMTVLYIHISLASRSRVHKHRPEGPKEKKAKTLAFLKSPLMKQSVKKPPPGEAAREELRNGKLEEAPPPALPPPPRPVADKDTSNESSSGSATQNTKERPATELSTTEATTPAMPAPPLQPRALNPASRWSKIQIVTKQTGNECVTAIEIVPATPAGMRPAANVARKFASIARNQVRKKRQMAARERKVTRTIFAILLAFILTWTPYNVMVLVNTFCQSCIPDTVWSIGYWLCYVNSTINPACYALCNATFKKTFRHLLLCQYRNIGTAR
Test: mAChR M4 cell-based functional assay (calcium mobilization, potentiation of EC20 acetylcholine response)
Settings: for Emax at 30 µM: % ACh maximum at 30 μM; for EC50: mAChR M4 cell-based functional assay, >10,000 estimated for low potency compounds without plateau, read-out: EC50

| SMILES | Emax at 30 µM [%] | EC50 [µM] |
| --- | --- | --- |
| Cc1nnc2sc(C(=O)NCCN(C)C(=O)c3ccc(F)cc3)c(N)c2c1C [Example B357] | 27 | > 10 |
| Cc1nnc2sc(C(=O)NCc3cccc(-c4ccccc4)c3)c(N)c2c1C [Example B469] | 64 | 0.43 |
| Cc1nnc2sc(C(=O)N3CC(NC(=O)C4CCCCC4)C3)c(N)c2c1C [Example B185] | 54 | 1.8 |
| Cc1nnc2sc(C(=O)NCC3CN(C(=O)OC(C)(C)C)C3)c(N)c2c1C [Example B197] | 35 | > 10 |
| Cc1cccc(S(=O)(=O)N2CC(NC(=O)c3sc4nnc(C)c(C)c4c3N)C2)c1 [Example B138] | 65 | 0.057 |
| Cc1nnc2sc(C(=O)NCc3ccc(C(F)F)cc3)c(N)c2c1C [Example B260] | 81 | 0.034 |
| Cc1nnc2sc(C(=O)NC3CCN(C(=O)CCCc4ccccc4)C3)c(N)c2c1C (centres unmarked) [Example B258] | 64 | 0.52 |
| Cc1nnc2sc(C(=O)NCc3ccc4c(ccn4C)c3)c(N)c2c1C [Example B196] | 69 | 0.061 |
| CCCOC(=O)N1CCC(NC(=O)c2sc3nnc(C)c(C)c3c2N)C1 (centres unmarked) [Example B224] | 77 | 0.61 |
| Cc1nnc2sc(C(=O)NC3CN(C(=O)c4ccc5ccccc5c4)C3)c(N)c2c1C [Example B130] | 79 | 0.097 |
| Cc1nnc2sc(C(=O)N3CC4CN(S(C)(=O)=O)CC4C3)c(N)c2c1C (centres unmarked) [Example B277] | 56 | > 10 |
| Cc1nnc2sc(C(=O)N3CC(F)(c4cccc(-c5cncnc5)c4)C3)c(N)c2c1C [Example B317] | 47 | 0.29 |
| Cc1nnc2sc(C(=O)NCc3cnccn3)c(N)c2c1C [Example B10] | 82 | > 10 |
| CCCOC(=O)NC(CCl)CNC(=O)c1sc2nnc(C)c(C)c2c1N (centres unmarked) [Example B165] | 32 | > 10 |
| Cc1nnc2sc(C(=O)NCc3ccc4nonc4c3)c(N)c2c1C [Example B43] | 75 | 0.27 |
| Cc1nnc2sc(C(=O)NC3CN(C(=O)N(C)c4ccccc4)C3)c(N)c2c1C [Example B423] | 59 | 0.053 |
| COC1(c2cccc(F)c2)CN(C(=O)c2sc3nnc(C)c(C)c3c2N)C1 [Example B299] | 35 | 0.35 |
| Cc1nnc2sc(C(=O)N3CC(F)(c4cccc(N=[N+]=[N-])c4)C3)c(N)c2c1C [Example B401] | 54 | 3.1 |
| Cc1nnc2sc(C(=O)NCc3ncccn3)c(N)c2c1C [Example B3] | 46 | > 10 |
| Cc1nnc2sc(C(=O)N3C[C@@H]4C[C@@H]3CN4C(=O)c3ccccc3)c(N)c2c1C [Example B263] | 41 | > 10 |
| Cc1nnc2sc(C(=O)N3CCCn4nccc43)c(N)c2c1C [Example B445] | 31 | > 10 |
| Cc1nnc2sc(C(=O)NC3CN(C(=O)c4ccncc4)C3)c(N)c2c1C [Example B150] | 62 | 0.19 |

| SMILES | Emax at 30 µM [%] | EC50 [µM] |
| --- | --- | --- |
| Cc1nnc2sc(C(=O)NCc3nccs3)c(N)c2c1C [Example B11] | 82 | 1.5 |
| Cc1nnc2sc(C(=O)N3CCC(c4ccncc4)C3)c(N)c2c1C (centres unmarked) [Example B156] | 53 | 2.2 |
| Cc1nnc2sc(C(=O)NC3CN(Cc4ccc(F)cc4)C3)c(N)c2c1C [Example B46] | 38 | > 10 |
| COc1cccc(S(=O)(=O)N2CCC(NC(=O)c3sc4nnc(C)c(C)c4c3N)C2)c1 (centres unmarked) [Example B214] | 73 | 0.82 |
| CCS(=O)(=O)N1CC(NC(=O)c2sc3nnc(C)c(C)c3c2N)C1 [Example B142] | 77 | 0.29 |
| COc1ccc(C2CC2N(C)C(=O)c2sc3nnc(C)c(C)c3c2N)cc1 (centres unmarked) [Example B79] | 35 | > 10 |
| Cc1nnc2sc(C(=O)N3CC(NC(=O)C4CC4c4ccccc4)C3)c(N)c2c1C (centres unmarked) [Example B182] | 59 | 2.3 |
| Cc1nnc2sc(C(=O)NC3CN(C(=O)Nc4ccccc4F)C3)c(N)c2c1C [Example B338] | 62 | 0.044 |
| Cc1nnc2sc(C(=O)N3Cc4ccccc4C3)c(N)c2c1C [Example B280] | 46 | 1.7 |
| Cc1nnc2sc(C(=O)N[C@H]3CCN(S(C)(=O)=O)C3)c(N)c2c1C [Example B82] | 59 | 0.46 |
| Cc1nnc2sc(C(=O)N3CC(F)(c4ccc(-c5cccnc5)cc4)C3)c(N)c2c1C [Example B320] | 42 | 0.13 |
| Cc1nnc2sc(C(=O)NC3CCN(C(=O)C4CC4c4ccccc4)C3)c(N)c2c1C (centres unmarked) [Example B247] | 73 | 0.39 |
| Cc1nnc2sc(C(=O)N3CCC(NS(=O)(=O)c4cccc(F)c4)C3)c(N)c2c1C (centres unmarked) [Example B211] | 70 | 1.4 |
| Nc1c(C(=O)NCc2ccccc2)sc2nnccc12 [Example B19] | 53 | > 10 |
| Cc1nnc2sc(C(=O)NCc3ccc(OC(F)(F)F)cc3)c(N)c2c1C [Example B181] | 68 | 0.03 |
| Nc1c(C(=O)NCc2cccc(F)c2F)sc2nnc3c(c12)CCCC3 [Example B57] | 47 | 0.1 |
| Cc1nnc2sc(C(=O)N3CCC(NC(=O)c4ccncc4)C3)c(N)c2c1C (centres unmarked) [Example B204] | 64 | 5 |
| Cc1nnc2sc(C(=O)NCc3ccc(C4(S(C)(=O)=O)CC4)cc3)c(N)c2c1C [Example B105] | 66 | 0.055 |
| COc1ccc(C(=O)N2CC(NC(=O)c3sc4nnc(C)c(C)c4c3N)C2)c(OC)c1 [Example B161] | 61 | 0.2 |
| Cc1nnc2sc(C(=O)NC3CN(S(=O)(=O)c4ccccc4)C3)c(N)c2c1C [Example B159] | 56 | 0.081 |
| Cc1nnc2sc(C(=O)NCc3ccc(S(=O)(=O)C(C)(F)F)cc3)c(N)c2c1C [Example B118] | 66 | 0.01 |
| Cc1nnc2sc(C(=O)NCc3ccc(S(=O)(=O)c4ccccc4)cc3)c(N)c2c1C [Example B505] | 63 | 0.11 |

| SMILES | Emax at 30 µM [%] | EC50 [µM] |
| --- | --- | --- |
| Cc1cc(-c2ccc(CNC(=O)c3sc4nnc(C)c(C)c4c3N)cc2)cnc1Cl [Example B458] | 82 | 0.032 |
| Cc1nnc2sc(C(=O)Nc3ccc4cn[nH]c4c3)c(N)c2c1C [Example B67] | 51 | 0.35 |
| Cc1nnc2sc(C(=O)NC3CN(C(=O)C4CCCCC4)C3)c(N)c2c1C [Example B123] | 97 | 0.13 |
| Cc1nnc2sc(C(=O)N3CC(Br)(c4ccccc4)C3)c(N)c2c1C [Example B191] | 45 | 2.1 |
| Cc1nnc2sc(C(=O)NCc3ccc(-c4ccc(F)nc4)cc3)c(N)c2c1C [Example B459] | 88 | 0.015 |
| Cc1nnc2sc(C(=O)Nc3ccncc3)c(N)c2c1C [Example B38] | 54 | 0.6 |
| Cc1nnc2sc(C(=O)N3CC4(C3)CN(C(=O)C3CCCC3)C4)c(N)c2c1C [Example B402] | 46 | 3.3 |
| Cc1nnc2sc(C(=O)NCc3ccc(S(=O)(=O)CCO)cc3)c(N)c2c1C [Example B387] | 77 | 0.068 |
| Cc1nnc2sc(C(=O)N3CC(NCc4ccc(F)cc4)C3)c(N)c2c1C [Example B59] | 56 | 4.1 |
| CC(O)(c1ccc(CNC(=O)c2sc3nnc4c(c3c2N)CCCC4)cc1)C(F)(F)F (centres unmarked) [Example B188] | 56 | 0.9 |
| Cc1nnc2sc(C(=O)NC3CN(C(=O)Oc4ccc(N=[N+]=[N-])cc4)C3)c(N)c2c1C [Example B421] | 84 | 0.015 |
| COc1ccc(C#CCNC(=O)c2sc3nnc(C)c(C)c3c2N)cc1 [Example B373] | 66 | 0.17 |
| Cc1nnc2sc(C(=O)NCc3ccc(OC(F)F)cn3)c(N)c2c1C [Example B480] | 74 | > 10 |
| Cc1nnc2sc(C(=O)N3CC4CN(C(=O)Oc5ccccc5)CC4C3)c(N)c2c1C (centres unmarked) [Example B336] | 49 | 0.98 |
| COc1ccc(C2(OC)CN(C(=O)c3sc4nnc(C)c(C)c4c3N)C2)cc1 [Example B290] | 45 | 0.44 |
| Cc1nnc2sc(C(=O)NC3CCCCC3)c(N)c2c1C [Example B97] | 75 | 1.5 |
| Cc1nnc2sc(C(=O)NC3CCN(c4ccccc4OC(F)(F)F)C3)c(N)c2c1C (centres unmarked) [Example B282] | 80 | 0.22 |
| COC1(C)CN(C(=O)c2sc3nnc(C)c(C)c3c2N)C1 [Example B292] | 62 | > 10 |
| COc1ccc(C2CC2NC(=O)c2sc3nnc(C)c(C)c3c2N)cc1 (centres unmarked) [Example B30] | 76 | 0.014 |
| Cc1nnc2sc(C(=O)NCc3ccc(S(=O)(=O)C(C)(C)C)cc3)c(N)c2c1C [Example B47] | 76 | 0.041 |
